# Reference: US9175003B2, “Substituted azoanthracene derivatives and intermediates for preparation thereof” (TransTech Pharma, LLC, priority 2009, dated 2015)
# pEC50: −log10 of the molar value.
# Molecular target: human GLP-1 receptor (Homo sapiens (Human), UniProt P43220)
# Details: read-out: Mean EC50; cAMP, HTRF detection, 30 min at 37° C., HEK-293 cells expressing cloned human GLP-1 receptor
# Protocol: Following overnight incubation of cells, media was removed, and compounds (at concentrations ranging from 0.0001 to 100 μM) were added to monolayer cells in Iscove's modified dulbecco's medium (IMDM), 100 μM RO 20-1724 PDE inhibitor, 0.1% BSA, 2% DMSO in a final volume of 100 μL, and incubated for 30 min at 37° C. […] Alternatively, cells were harvested and combined with compounds in suspension using the buffer and protocol described above. cAMP was quantified using a homogenous time-resolved fluorescence detection system (cAMP dynamic, CIS bio International).
# Chain of human GLP-1 receptor (P43220 24-463): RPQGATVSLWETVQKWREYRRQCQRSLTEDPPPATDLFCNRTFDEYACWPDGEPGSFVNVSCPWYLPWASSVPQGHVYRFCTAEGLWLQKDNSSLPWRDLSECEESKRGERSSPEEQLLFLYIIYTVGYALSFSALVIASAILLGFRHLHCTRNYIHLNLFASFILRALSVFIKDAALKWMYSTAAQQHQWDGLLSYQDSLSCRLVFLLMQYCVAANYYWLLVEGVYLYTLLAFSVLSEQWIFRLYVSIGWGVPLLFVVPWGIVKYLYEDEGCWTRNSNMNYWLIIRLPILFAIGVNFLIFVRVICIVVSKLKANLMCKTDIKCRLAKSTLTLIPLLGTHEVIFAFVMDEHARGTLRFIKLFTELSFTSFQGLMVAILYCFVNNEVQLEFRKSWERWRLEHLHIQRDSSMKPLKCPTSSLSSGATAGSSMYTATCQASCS
row,SMILES,pEC50
1,"Cc1nc(C(=O)N2Cc3cc4c(cc3C[C@H]2C(=O)N[C@@H](Cc2ccc(-c3ccnc(C)c3C)cc2)C(=O)O)OC[C@H](c2cccc(OCc3ccc(Cl)c(Cl)c3)c2)O4)c(C)o1 [Example 415, (S)-2-{[(3S,8S)-3-[3-(3,4-Dichloro-benzyloxy)-phenyl]-7-(2,5-dimethyl-oxazole-4-carbonyl)-2,3,6,7,8,9-hexahydro-[1,4]dioxino[2,3-g]isoquinoline-8-carbonyl]-amino}-3-[4-(2,3-dimethyl-pyridin-4-yl)-phenyl]-propionic acid]",7.12
2,"CC[C@@H](c1ccccc1)N1Cc2cc3c(cc2C[C@H]1C(=O)N[C@@H](Cc1ccc(-c2ccnc(C)c2C)cc1)C(=O)O)OC[C@H](c1cccc(OCc2ccc(Cl)c(Cl)c2)c1)O3 [Example 419, (S)-2-{[(3S,8S)-3-[3-(3,4-Dichloro-benzyloxy)-phenyl]-7-((S)-1-phenyl-propyl)-2,3,6,7,8,9-hexahydro-[1,4]dioxino[2,3-g]isoquinoline-8-carbonyl]-amino}-3-[4-(2,3-dimethyl-pyridin-4-yl)-phenyl]-propionic acid]",7.05
3,"CC[C@@H](c1ccccc1)N1Cc2cc3c(cc2C[C@H]1C(=O)N[C@@H](Cc1ccc(Oc2ccnc(C)c2C)cc1)C(=O)O)OC[C@H](c1cccc(OCc2ccc(Cl)c(Cl)c2)c1)O3 [Example 422, (S)-2-{[(3S,8S)-3-[3-(3,4-Dichloro-benzyloxy)-phenyl]-7-((S)-1-phenyl-propyl)-2,3,6,7,8,9-hexahydro-[1,4]dioxino[2,3-g]isoquinoline-8-carbonyl]-amino}-3-[4-(2,3-dimethyl-pyridin-4-yloxy)-phenyl]-propionic acid]",8.10
4,"CC[C@@H](c1ccccc1)N1Cc2cc3c(cc2C[C@H]1C(=O)N[C@@H](Cc1ccc(-c2ccnc(C)c2C)cc1)C(=O)O)OC[C@H](c1ccc(Oc2ccccc2)cc1)O3 [Example 424, (S)-3-[4-(2,3-Dimethyl-pyridin-4-yl)-phenyl]-2-{[(3S,8S)-3-(4-phenoxy-phenyl)-7-((S)-1-phenyl-propyl)-2,3,6,7,8,9-hexahydro-[1,4]dioxino[2,3-g]isoquinoline-8-carbonyl]-amino}-propionic acid]",6.69
5,"Cc1nccc(-c2ccc(C[C@H](NC(=O)[C@@H]3Cc4cc5c(cc4CN3C(=O)OC(C)(C)C)O[C@H](c3ccc(OCc4ccc(Cl)c(Cl)c4)cc3)CO5)C(=O)O)cc2)c1C [Example 427, (3R,8S)-8-{(S)-1-Carboxy-2-[4-(2,3-dimethyl-pyridin-4-yl)-phenyl]-ethylcarbamoyl}-3-[4-(3,4-dichloro-benzyloxy)-phenyl]-2,3,8,9-tetrahydro-6H-[1,4]dioxino[2,3-g]isoquinoline-7-carboxylic acid tert-butyl ester]",7.08
6,"Cc1nc(C(=O)N2Cc3cc4c(cc3C[C@H]2C(=O)N[C@@H](Cc2ccc(-c3ccnc(C)c3C)cc2)C(=O)O)OC[C@@H](c2ccc(OCc3ccc(Cl)c(Cl)c3)cc2)O4)c(C)o1 [Example 428, (S)-2-{[(3R,8S)-3-[4-(3,4-Dichloro-benzyloxy)-phenyl]-7-(2,5-dimethyl-oxazole-4-carbonyl)-2,3,6,7,8,9-hexahydro-[1,4]dioxino[2,3-g]isoquinoline-8-carbonyl]-amino}-3-[4-(2,3-dimethyl-pyridin-4-yl)-phenyl]-propionic acid]",7.66
7,"Cc1nccc(-c2ccc(C[C@H](NC(=O)[C@@H]3Cc4cc5c(cc4CN3C(=O)N[C@H](C)c3ccccc3)O[C@H](c3ccc(OCc4ccc(Cl)c(Cl)c4)cc3)CO5)C(=O)O)cc2)c1C [Example 429, (S)-2-{[(3R,8S)-3-[4-(3,4-Dichloro-benzyloxy)-phenyl]-7-((R)-1-phenyl-ethylcarbamoyl)-2,3,6,7,8,9-hexahydro-[1,4]dioxino[2,3-g]isoquinoline-8-carbonyl]-amino}-3-[4-(2,3-dimethyl-pyridin-4-yl)-phenyl]-propionic acid]",7.49
8,"CC[C@@H](c1ccccc1)N1Cc2cc3c(cc2C[C@H]1C(=O)N[C@@H](Cc1ccc(-c2ccnc(C)c2C)cc1)C(=O)O)OC[C@@H](c1ccc(OCc2ccc(Cl)c(Cl)c2)cc1)O3 [Example 430, (S)-2-{[(3R,8S)-3-[4-(3,4-Dichloro-benzyloxy)-phenyl]-7-((S)-1-phenyl-propyl)-2,3,6,7,8,9-hexahydro-[1,4]dioxino[2,3-g]isoquinoline-8-carbonyl]-amino}-3-[4-(2,3-dimethyl-pyridin-4-yl)-phenyl]-propionic acid]",7.92
9,"Cc1nc(C(=O)N2Cc3cc4c(cc3C[C@H]2C(=O)N[C@@H](Cc2ccc(-c3ccnc(C)c3C)cc2)C(=O)O)OC[C@H](c2ccc(OCc3ccc(Cl)c(Cl)c3)cc2)O4)co1 [Example 431, (S)-2-{[(3S,8S)-3-[4-(3,4-Dichloro-benzyloxy)-phenyl]-7-(2-methyl-oxazole-4-carbonyl)-2,3,6,7,8,9-hexahydro-[1,4]dioxino[2,3-g]isoquinoline-8-carbonyl]-amino}-3-[4-(2,3-dimethyl-pyridin-4-yl)-phenyl]-propionic acid]",7.51
10,"Cc1nc(C)c(C(=O)N2Cc3cc4c(cc3C[C@H]2C(=O)N[C@@H](Cc2ccc(-c3ccnc(C)c3C)cc2)C(=O)O)OC[C@H](c2ccc(OCc3ccc(Cl)c(Cl)c3)cc2)O4)o1 [Example 432, (S)-2-{[(3S,8S)-3-[4-(3,4-Dichloro-benzyloxy)-phenyl]-7-(2,4-dimethyl-oxazole-5-carbonyl)-2,3,6,7,8,9-hexahydro-[1,4]dioxino[2,3-g]isoquinoline-8-carbonyl]-amino}-3-[4-(2,3-dimethyl-pyridin-4-yl)-phenyl]-propionic acid]",7.68
11,"Cc1nccc(Oc2ccc(C[C@H](NC(=O)[C@@H]3Cc4cc5c(cc4CN3S(=O)(=O)C(C)C)O[C@@H](c3ccc(OCc4ccc(Cl)c(Cl)c4)cc3)CO5)C(=O)O)cc2)c1C [Example 436, (S)-2-{[(3S,8S)-3-[4-(3,4-Dichloro-benzyloxy)-phenyl]-7-(propane-2-sulfonyl)-2,3,6,7,8,9-hexahydro-[1,4]dioxino[2,3-g]isoquinoline-8-carbonyl]-amino}-3-[4-(2,3-dimethyl-pyridin-4-yloxy)-phenyl]-propionic acid]",6.49
12,"Cc1nccc(-c2ccc(C[C@H](NC(=O)[C@@H]3Cc4cc5c(cc4CN3C(=O)NC3(C)CCCCC3)O[C@@H](c3ccc(OCc4ccc(Cl)c(Cl)c4)cc3)CO5)C(=O)O)cc2)c1C [Example 438, (S)-2-{[(3S,8S)-3-[4-(3,4-Dichloro-benzyloxy)-phenyl]-7-(1-methyl-cyclohexylcarbamoyl)-2,3,6,7,8,9-hexahydro-[1,4]dioxino[2,3-g]isoquinoline-8-carbonyl]-amino}-3-[4-(2,3-dimethyl-pyridin-4-yl)phenyl]-propionic acid]",7.43
13,"Cc1nc(C(=O)N2Cc3cc4c(cc3C[C@H]2C(=O)N[C@@H](Cc2ccc(-c3ccc(F)cc3)cc2)C(=O)O)OC[C@H](c2ccc(OCc3ccc(Cl)c(Cl)c3)cc2)O4)c(C)o1 [Example 440, (S)-2-{[(3S,8S)-3-[4-(3,4-Dichloro-benzyloxy)-phenyl]-7-(2,5-dimethyl-oxazole-4-carbonyl)-2,3,6,7,8,9-hexahydro-[1,4]dioxino[2,3-g]isoquinoline-8-carbonyl]-amino}-3-(4′-fluoro-biphenyl-4-yl)-propionic acid]",6.41
14,"Cc1nccc(-c2ccc(C[C@H](NC(=O)[C@@H]3Cc4cc5c(cc4CN3C(=O)c3ccccc3)O[C@@H](c3ccc(OCC4CCCCC4)cc3)CO5)C(=O)O)cc2)c1C [Example 442, (S)-2-{[(3S,8S)-7-Benzoyl-3-(4-cyclohexylmethoxy-phenyl)-2,3,6,7,8,9-hexahydro-[1,4]dioxino[2,3-g]isoquinoline-8-carbonyl]-amino}-3-[4-(2,3-dimethyl-pyridin-4-yl)-phenyl]-propionic acid]",6.68
